Measurements taken from ChEMBL document CHEMBL2429780, “Synthesis, antimicrobial and cytotoxic activity of 2-azetidinone derivatives of pyridyl benzimidazoles” (Med Chem Res, 2013).
Activity calls are given as the source filed them.

Legend:
Assay type in all cases: functional, organism-based
Candida albicans = experiment: Antifungal activity against Candida albicans assessed as growth inhibition at 12.5 to 1000 ug/mL after 48 hrs by broth dilution assay
Aspergillus clavatus = experiment: Antifungal activity against Aspergillus clavatus assessed as growth inhibition at 12.5 to 1000 ug/mL after 48 hrs by broth dilution assay
Escherichia coli = experiment: Antibacterial activity against Escherichia coli MTCC 443 assessed as growth inhibition at 12.5 to 1000 ug/mL after 24 hrs by broth dilution assay
Streptococcus pyogenes = experiment: Antibacterial activity against Streptococcus pyogenes MTCC 442 assessed as growth inhibition at 12.5 to 1000 ug/mL after 24 hrs by broth dilution assay
Staphylococcus aureus = experiment: Antibacterial activity against Staphylococcus aureus MTCC 96 assessed as growth inhibition at 12.5 to 1000 ug/mL after 24 hrs by broth dilution assay
Aspergillus niger = experiment: Antifungal activity against Aspergillus niger assessed as growth inhibition at 12.5 to 1000 ug/mL after 48 hrs by broth dilution assay
Pseudomonas aeruginosa = experiment: Antibacterial activity against Pseudomonas aeruginosa MTCC 1688 assessed as growth inhibition at 12.5 to 1000 ug/mL after 24 hrs by broth dilution assay

Measured: growth inhibition (GI)

N#Cc1c(-c2ccccc2O)cc(-c2nc3ccccc3[nH]2)nc1N
inactive: all assays above

Cc1ccc(-c2cc(-c3nc4ccccc4[nH]3)nc(N)c2C#N)cc1
inactive: all assays above

N#Cc1c(-c2ccc(Cl)cc2O)cc(-c2nc3ccccc3[nH]2)nc1N
inactive: all assays above

N#Cc1c(-c2ccc(O)cc2)cc(-c2nc3ccccc3[nH]2)nc1N
inactive: all assays above

Cc1ccccc1-c1cc(-c2nc3ccccc3[nH]2)nc(N)c1C#N
inactive: all assays above

N#Cc1c(-c2cccc(O)c2)cc(-c2nc3ccccc3[nH]2)nc1N
inactive: all assays above

COc1cccc(-c2cc(-c3nc4ccccc4[nH]3)nc(N)c2C#N)c1
inactive: all assays above

N#Cc1c(-c2ccccc2)cc(-c2nc3ccccc3[nH]2)nc1N
inactive: all assays above

N#Cc1c(-c2ccccc2Cl)cc(-c2nc3ccccc3[nH]2)nc1N
inactive: all assays above

COc1ccc(-c2cc(-c3nc4ccccc4[nH]3)nc(N)c2C#N)cc1
inactive: all assays above
